Measured values published in ChEMBL document CHEMBL4421717, “Antagonists and agonists of bitter taste receptors and uses thereof” (2012).
The source made the active and inactive calls. The calls are words filed in the database; no cut-off is given here.

Key:
Format in all cases: functional, cell-based
[1] = molecular target: T1, Taste receptor type 2 member 46 (Homo sapiens) (UniProt P59540); experiment: Agonist activity at recombinant human N-terminal rat ST3 receptor-fused TAS2R46 expressed in HEK293T cells co-expressing Galpha16gust44 assessed as effect on intracellular calcium level at 100 uM by FLIPR assay
T1 sequence (whole entry): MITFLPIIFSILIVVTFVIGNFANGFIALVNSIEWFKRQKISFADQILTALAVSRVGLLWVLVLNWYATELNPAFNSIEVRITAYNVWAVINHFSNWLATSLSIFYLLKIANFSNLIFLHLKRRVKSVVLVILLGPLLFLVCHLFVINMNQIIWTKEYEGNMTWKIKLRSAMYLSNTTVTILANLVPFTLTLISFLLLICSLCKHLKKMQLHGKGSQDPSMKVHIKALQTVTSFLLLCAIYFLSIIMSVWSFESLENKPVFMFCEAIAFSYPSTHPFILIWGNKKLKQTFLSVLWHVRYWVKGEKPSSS

[2] = molecular target: T2, Taste receptor type 2 member 43 (Homo sapiens) (UniProt P59537); experiment: Antagonist activity at recombinant human N-terminal rat ST3 receptor-fused TAS2R43 expressed in HEK293T cells co-expressing Galpha16gust44 assessed as reduction in aristolochic acids-induced intracellular calcium level at 100 uM by FLIPR assay
T2 sequence (whole entry): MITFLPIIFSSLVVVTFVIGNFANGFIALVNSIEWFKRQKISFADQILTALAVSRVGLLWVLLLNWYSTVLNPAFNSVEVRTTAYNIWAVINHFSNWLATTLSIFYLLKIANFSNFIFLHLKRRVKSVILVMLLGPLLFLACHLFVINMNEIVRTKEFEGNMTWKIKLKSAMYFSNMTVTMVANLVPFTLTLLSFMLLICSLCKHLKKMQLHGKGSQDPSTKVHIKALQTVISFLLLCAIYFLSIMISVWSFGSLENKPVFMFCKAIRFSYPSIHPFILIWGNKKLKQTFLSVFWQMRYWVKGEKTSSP

[3] = molecular target: Taste receptor type 2 member 40 (Homo sapiens) (UniProt P59535); experiment: Antagonist activity at recombinant human N-terminal rat ST3 receptor-fused TAS2R40 expressed in HEK293T cells co-expressing Galpha16gust44 assessed as inhibition of cohumulone-induced intracellular calcium level at 100 uM by FLIPR assay
[4] = molecular target: T3, Taste receptor type 2 member 14 (Homo sapiens) (UniProt Q9NYV8); experiment: Activity at recombinant human N-terminal rat ST3 receptor-fused TAS2R14 expressed in HEK293T cells co-expressing Galpha16gust44 assessed as effect on aristolochic acids-induced intracellular calcium level at 100 uM by FLIPR assay
T3 sequence (whole entry): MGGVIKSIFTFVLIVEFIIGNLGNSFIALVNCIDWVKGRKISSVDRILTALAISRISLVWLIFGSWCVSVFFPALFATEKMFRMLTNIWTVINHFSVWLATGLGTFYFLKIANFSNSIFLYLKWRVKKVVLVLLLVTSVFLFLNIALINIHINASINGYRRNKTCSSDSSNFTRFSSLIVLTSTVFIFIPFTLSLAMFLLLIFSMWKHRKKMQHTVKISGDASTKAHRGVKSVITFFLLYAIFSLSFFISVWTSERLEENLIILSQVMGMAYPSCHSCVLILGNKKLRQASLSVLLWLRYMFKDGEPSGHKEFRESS

[5] = molecular target: T4, Taste receptor type 2 member 50 (Homo sapiens) (UniProt P59544); experiment: Activity at recombinant human N-terminal rat ST3 receptor-fused TAS2R50 expressed in HEK293T cells co-expressing Galpha16gust44 assessed as effect on andrographolide-induced intracellular calcium level at 100 uM by FLIPR assay
T4 sequence (whole entry): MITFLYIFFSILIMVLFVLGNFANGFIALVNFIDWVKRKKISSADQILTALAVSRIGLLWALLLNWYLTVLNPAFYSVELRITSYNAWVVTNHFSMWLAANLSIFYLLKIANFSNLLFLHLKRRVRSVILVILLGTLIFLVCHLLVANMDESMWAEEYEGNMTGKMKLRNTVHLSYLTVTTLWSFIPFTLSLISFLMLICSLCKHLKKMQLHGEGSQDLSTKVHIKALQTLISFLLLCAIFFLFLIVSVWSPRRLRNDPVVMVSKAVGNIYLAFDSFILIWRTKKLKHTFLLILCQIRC

[6] = molecular target: T5, Taste receptor type 2 member 38 (Homo sapiens) (UniProt P59533); experiment: Activity at recombinant human N-terminal rat ST3 receptor-fused TAS2R38 expressed in HEK293T cells co-expressing Galpha16gust44 assessed as effect on phenylthiocarbamide-induced intracellular calcium level at 100 uM by FLIPR assay
T5 sequence (whole entry): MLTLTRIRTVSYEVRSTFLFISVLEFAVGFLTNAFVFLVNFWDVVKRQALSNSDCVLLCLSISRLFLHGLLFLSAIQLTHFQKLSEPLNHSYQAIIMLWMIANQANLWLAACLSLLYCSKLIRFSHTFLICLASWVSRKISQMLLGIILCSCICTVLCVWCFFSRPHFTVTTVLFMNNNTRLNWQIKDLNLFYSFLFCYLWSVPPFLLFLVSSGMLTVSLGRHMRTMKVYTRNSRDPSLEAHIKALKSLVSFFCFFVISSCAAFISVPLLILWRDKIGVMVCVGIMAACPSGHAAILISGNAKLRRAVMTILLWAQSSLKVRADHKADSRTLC

[7] = molecular target: T6, Taste receptor type 2 member 30 (Homo sapiens) (UniProt P59541); experiment: Antagonist activity at recombinant human N-terminal rat ST3 receptor-fused TAS2R47 expressed in HEK293T cells co-expressing Galpha16gust44 assessed as inhibition of brucine-induced intracellular calcium level at 100 uM by FLIPR assay
T6 sequence (whole entry): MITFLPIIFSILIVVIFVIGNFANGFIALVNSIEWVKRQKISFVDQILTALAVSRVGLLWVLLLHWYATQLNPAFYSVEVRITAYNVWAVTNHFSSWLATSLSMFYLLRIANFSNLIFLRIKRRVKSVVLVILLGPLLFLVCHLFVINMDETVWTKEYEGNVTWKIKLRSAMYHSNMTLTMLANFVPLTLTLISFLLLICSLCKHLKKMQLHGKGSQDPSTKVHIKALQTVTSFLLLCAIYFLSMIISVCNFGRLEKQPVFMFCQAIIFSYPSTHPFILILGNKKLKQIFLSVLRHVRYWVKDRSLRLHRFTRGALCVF

[8] = molecular target: T7, Taste receptor type 2 member 46 (Homo sapiens, UniProt P59540); experiment: Antagonist activity at recombinant human N-terminal rat ST3 receptor-fused TAS2R46 expressed in HEK293T cells co-expressing Galpha16gust44 assessed as inhibition of 3 uM strychnine-induced intracellular calcium level 100 uM by FLIPR assay
T7 sequence (P59540 whole entry): T1 sequence (whole entry)

Taste receptor type 2 member 40 (Homo sapiens), sequence (P59535 whole entry, the tested form may be a part): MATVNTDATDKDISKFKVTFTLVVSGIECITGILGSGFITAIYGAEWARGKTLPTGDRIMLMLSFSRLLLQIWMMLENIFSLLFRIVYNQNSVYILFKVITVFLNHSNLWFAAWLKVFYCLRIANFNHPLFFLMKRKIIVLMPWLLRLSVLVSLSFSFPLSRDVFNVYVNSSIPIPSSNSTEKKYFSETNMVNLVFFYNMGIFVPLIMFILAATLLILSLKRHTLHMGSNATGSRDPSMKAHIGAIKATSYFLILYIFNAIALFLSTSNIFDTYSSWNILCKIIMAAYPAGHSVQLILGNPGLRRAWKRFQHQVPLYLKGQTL

Compound	Activity [1]	inhibition [2]	inhibition [3]	Activity [4]	Activity [5]	Activity [6]	inhibition [7]	IC50 [8]
C/C1=C\C[C@H](O)[C@@H](C)C[C@H]2OC(=O)[C@@H](C)C2CC1 (stereo partly specified)	Active	100%	Active	inactive	inactive	inactive	100%	84.9 µM
C/C1=C\C[C@H](O)/C(C)=C/[C@H]2OC(=O)[C@@H](C)C2CC1 (stereo partly specified)	inactive	Active	Active	inactive	inactive	inactive	Active	15.3 µM
